Results taken from patent publication US6914045B2, “Glycopeptide antibiotics” (Wyeth Holdings Corporation, priority 2001, dated 2005).
Converted amounts (≈) assume the structure as drawn.

Columns and labels:
[1] = system: Enterococcus sp.; assay: in vitro antibacterial evaluation, MIC by broth dilution; type: cell-based; conditions: broth dilution, 18 hours at 35° C.
Outline: (§1)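 Following National Committee for Clinical Laboratory Standards recommendations (M7-A2), susceptibility was measured by dilution in Muller-Hinton II […]. Bacteria were seeded at 5×10^5 CFU/mL against compound concentrations from 64 down to 0.06 μg/mL.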

[2] = system: Escherichia coli; assay: as above; type: cell-based; conditions: 18 hours at 35° C.
Outline: as §1

[3] = system: Staphylococcus sp.; assay: as above; type: cell-based; conditions: broth dilution, 18 hours at 35° C.
Outline: as §1

[4] = system: Streptococcus sp.; assay: as above; type: cell-based; conditions: broth dilution, 18 hours at 35° C.
Outline: as §1

[5] = system: Streptococcus pneumoniae (GC 1894); assay: acute lethal infection in mice; type: in vivo; conditions: female CD-1 mice, intraperitoneal challenge, intravenous 30 min. after infection, 7 day survival
Outline: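 ED50 from 7 day survival ratios pooled over 3 separate tests. Female CD-1 mice, 20+/−2 gm, ip bacterial challenge (trypticase soy broth or hog gastric mucin) lethal to untreated controls in 24-48 hr; iv dosing 30 min after infection in saline or 5% dextrose, n=5/dose.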

[6] = system: Staphylococcus aureus; assay: zone of inhibition, agar well assay plate; type: cell-based; conditions: 25 μl of extract per 5 mm well, incubated overnight at 37° C.
Experimental: Protocol for Assay Plate Staphylococcus aureus
Inoculate 10 mL of Tryptic Soy Broth with a loopful of slant culture, Staphylococcus aureus, and place in a stationary rack at 37° C. After 16-18 hour incubation, the Optical Density (OD) of the culture is read@A600 nm, using a 1:10 dilution. OD should be between 0.1-0.3, and if not adjust with Tryptic Soy Broth. A 40 mL sample of Nutrient Agar, pH 6.8 is inoculated with 90 ul of S. aureus culture and poured into a sterile petri dish. When the agar has solidified, wells (5 mm) are plated using an automated welling device. Wells are inoculated with 25 μl of extract and incubated overnight at 37° C. Zones of inhibition are measured and recorded the following morning.

**Q.** How did the “MIC Enterococcus avium (GC 4558)” value ([1]; Enterococcus avium (GC 4558)) turn out when `CC(c1ccccc1)C1NC(=O)CNC(=O)C(CO)NC(=O)C(C(O)C2CNC(=N)N2C2OC(CO)C(O)C(O)C2O)NC(=O)C(C(O)C2CNC(=N)N2)NC(=O)C(Cc2ccc(OC3OC(CO)C(OC4OC5COC(C6CCCCC6)OC5C(O)C4O)C(O)C3O)cc2)NC1=O` (stereo not drawn) [Example 112, Cyclo[glycyl-β-methylphenylalanyl-O-[4-O-[4,6-O-(cyclohexylmethylene)hexopyranosyl]-hexopyranosyl]tyrosyl-3-(2-iminoimidazolidin-4-yl)seryl-3-(3-hexopyranosyl-2-iminoimidazolidin-4-yl)serylseryl]] was run?
**A.** 2 µg/mL (≈ 1.44 µM)

**Q.** What about the “MIC Enterococcus faecalis (ATCC 29212)” value ([1]; Enterococcus faecalis (ATCC 29212)) of the same compound?
**A.** 2 µg/mL (≈ 1.44 µM)

**Q.** And the “MIC Enterococcus faecalis (GC 2242)” value ([1]; Enterococcus faecalis (GC 2242))?
**A.** 1 to 2 µg/mL

**Q.** And the “MIC Enterococcus faecalis (GC 2691)” value ([1]; Enterococcus faecalis (GC 2691))?
**A.** 2 µg/mL (≈ 1.44 µM)

**Q.** And the “MIC Enterococcus faecalis (GC 3059)” value ([1]; Enterococcus faecalis (GC 3059))?
**A.** 2 µg/mL (≈ 1.44 µM)

**Q.** What about the “MIC Enterococcus faecalis (GC 4552)” value ([1]; Enterococcus faecalis (GC 4552)) of the same compound?
**A.** 2 µg/mL (≈ 1.44 µM)

**Q.** What about the “MIC Enterococcus faecalis (GC 4553)” value ([1]; Enterococcus faecalis (GC 4553)) of the same compound?
**A.** 2 to 4 µg/mL

**Q.** And the “MIC Enterococcus faecalis (GC 4554)” value ([1]; Enterococcus faecalis (GC 4554))?
**A.** 2 µg/mL (≈ 1.44 µM)

**Q.** And the “MIC Enterococcus faecalis (GC 6189)” value ([1]; Enterococcus faecalis (GC 6189))?
**A.** 2 µg/mL (≈ 1.44 µM)

**Q.** And the “MIC Enterococcus faecium (GC 2243)” value ([1]; Enterococcus faecium (GC 2243))?
**A.** 1 to 2 µg/mL

**Q.** What about the “MIC Enterococcus faecium (GC 4556)” value ([1]; Enterococcus faecium (GC 4556)) of the same compound?
**A.** 2 µg/mL (≈ 1.44 µM)

**Q.** What about the “MIC Enterococcus faecium (GC 4557)” value ([1]; Enterococcus faecium (GC 4557)) of the same compound?
**A.** 0.5 to 2 µg/mL

**Q.** What about the “MIC Enterococcus faecalis (ATCC 29212)” value ([1]; strain ATCC 29212) of the same compound?
**A.** 2 µg/mL (≈ 1.44 µM)

**Q.** What about the “MIC Enterococcus faecalis (GC 2242)” value ([1]; strain GC 2242) of the same compound?
**A.** 1 to 2 µg/mL

**Q.** And the “MIC Enterococcus faecium (GC 2243)” value ([1]; strain GC 2243)?
**A.** 1 to 2 µg/mL

**Q.** What about the “MIC Enterococcus faecalis (GC 2691)” value ([1]; strain GC 2691) of the same compound?
**A.** 2 µg/mL (≈ 1.44 µM)

**Q.** What about the “MIC Enterococcus faecalis (GC 3059)” value ([1]; strain GC 3059) of the same compound?
**A.** 2 µg/mL (≈ 1.44 µM)

**Q.** What about the “MIC Enterococcus faecalis (GC 4552)” value ([1]; strain GC 4552) of the same compound?
**A.** 2 µg/mL (≈ 1.44 µM)

**Q.** And the “MIC Enterococcus faecalis (GC 4553)” value ([1]; strain GC 4553)?
**A.** 2 to 4 µg/mL

**Q.** What about the “MIC Enterococcus faecalis (GC 4554)” value ([1]; strain GC 4554) of the same compound?
**A.** 2 µg/mL (≈ 1.44 µM)

**Q.** And the “MIC Enterococcus faecium (GC 4556)” value ([1]; strain GC 4556)?
**A.** 2 µg/mL (≈ 1.44 µM)

**Q.** And the “MIC Enterococcus faecium (GC 4557)” value ([1]; strain GC 4557)?
**A.** 0.5 to 2 µg/mL

**Q.** What about the “MIC Enterococcus avium (GC 4558)” value ([1]; strain GC 4558) of the same compound?
**A.** 2 µg/mL (≈ 1.44 µM)

**Q.** What about the “MIC Enterococcus faecalis (GC 6189)” value ([1]; strain GC 6189) of the same compound?
**A.** 2 µg/mL (≈ 1.44 µM)

**Q.** What about the “MIC Escherichia coli (ATCC 25922)” value ([2]; strain ATCC 25922) of the same compound?
**A.** 32 µg/mL (≈ 23 µM)

**Q.** And the “MIC Escherichia coli (GC 4559)” value ([2]; strain GC 4559)?
**A.** >16 µg/mL

**Q.** And the “MIC Escherichia coli (GC 4560)” value ([2]; strain GC 4560)?
**A.** 1 µg/mL (≈ 0.72 µM)

**Q.** What about the “MIC Coagulase Negative Staphylococcus (GC 4547)” value [3] of the same compound?
**A.** 0.5 to 1 µg/mL

**Q.** What about the “MIC Coagulase Negative Staphylococcus (GC 4548)” value [3] of the same compound?
**A.** 0.5 to 1 µg/mL

**Q.** What about the “MIC Coagulase Negative Staphylococcus (GC 4549)” value [3] of the same compound?
**A.** 0.5 to 1 µg/mL

**Q.** And the “MIC Coagulase Negative Staphylococcus (GC 4551)” value [3]?
**A.** 0.5 to 1 µg/mL

**Q.** And the “MIC Coagulase Negative Staphylococcus (GC 6257)” value [3]?
**A.** 1 µg/mL (≈ 0.72 µM)

**Q.** What about the “MIC Coagulase Negative Staphylococcus (ID-3941)” value [3] of the same compound?
**A.** 0.5 µg/mL (≈ 0.36 µM)

**Q.** And the “MIC Staphylococcus aureus (ATCC 29213)” value [3]?
**A.** 1 µg/mL (≈ 0.72 µM)

**Q.** What about the “MIC Staphylococcus aureus (GC 1131)” value [3] of the same compound?
**A.** 0.5 to 1 µg/mL

**Q.** What about the “MIC Staphylococcus aureus (GC 4541)” value [3] of the same compound?
**A.** 1 µg/mL (≈ 0.72 µM)

**Q.** And the “MIC Staphylococcus aureus (GC 4542)” value [3]?
**A.** 1 µg/mL (≈ 0.72 µM)

**Q.** What about the “MIC Staphylococcus aureus (GC 4544)” value [3] of the same compound?
**A.** 0.5 to 2 µg/mL

**Q.** And the “MIC Staphylococcus aureus (GC 4545)” value [3]?
**A.** 1 to 2 µg/mL

**Q.** And the “MIC Staphylococcus aureus-SMITH (GC 4543)” value [3]?
**A.** 0.5 to 1 µg/mL

**Q.** And the “MIC Staphylococcus haemolyticus (GC 4546)” value [3]?
**A.** 1 µg/mL (≈ 0.72 µM)

**Q.** What about the “MIC Staphylococcus aureus (GC 1131)” value ([3]; inoculum 5×10^5 CFU/mL, strain GC 1131) of the same compound?
**A.** 0.5 to 1 µg/mL

**Q.** What about the “MIC Staphylococcus aureus (ATCC 29213)” value ([3]; strain ATCC 29213) of the same compound?
**A.** 1 µg/mL (≈ 0.72 µM)

**Q.** And the “MIC Staphylococcus aureus (GC 4541)” value ([3]; strain GC 4541)?
**A.** 1 µg/mL (≈ 0.72 µM)

**Q.** What about the “MIC Staphylococcus aureus (GC 4542)” value ([3]; strain GC 4542) of the same compound?
**A.** 1 µg/mL (≈ 0.72 µM)

**Q.** What about the “MIC Staphylococcus aureus (GC 4544)” value ([3]; strain GC 4544) of the same compound?
**A.** 0.5 to 2 µg/mL

**Q.** What about the “MIC Staphylococcus aureus (GC 4545)” value ([3]; strain GC 4545) of the same compound?
**A.** 1 to 2 µg/mL

**Q.** What about the “MIC Staphylococcus haemolyticus (GC 4546)” value ([3]; strain GC 4546) of the same compound?
**A.** 1 µg/mL (≈ 0.72 µM)

**Q.** And the “MIC Coagulase Negative Staphylococcus (GC 4547)” value ([3]; strain GC 4547)?
**A.** 0.5 to 1 µg/mL

**Q.** And the “MIC Coagulase Negative Staphylococcus (GC 4548)” value ([3]; strain GC 4548)?
**A.** 0.5 to 1 µg/mL

**Q.** And the “MIC Coagulase Negative Staphylococcus (GC 4549)” value ([3]; strain GC 4549)?
**A.** 0.5 to 1 µg/mL

**Q.** And the “MIC Coagulase Negative Staphylococcus (GC 4551)” value ([3]; strain GC 4551)?
**A.** 0.5 to 1 µg/mL

**Q.** And the “MIC Coagulase Negative Staphylococcus (GC 6257)” value ([3]; strain GC 6257)?
**A.** 1 µg/mL (≈ 0.72 µM)

**Q.** What about the “MIC Coagulase Negative Staphylococcus (ID-3941)” value ([3]; strain ID-3941) of the same compound?
**A.** 0.5 µg/mL (≈ 0.36 µM)

**Q.** And the “MIC Staphylococcus aureus-SMITH (GC 4543)” value ([3]; strain SMITH GC 4543)?
**A.** 0.5 to 1 µg/mL

**Q.** And the “MIC Streptococcus agalactiae (GC 4564)” value ([4]; Streptococcus agalactiae (GC 4564))?
**A.** <0.12 µg/mL

**Q.** And the “MIC Streptococcus pneumoniae (GC 4565)” value ([4]; Streptococcus pneumoniae (GC 4565))?
**A.** <0.12 µg/mL

**Q.** What about the “MIC Streptococcus pyogenes (GC 4563)” value ([4]; Streptococcus pyogenes (GC 4563)) of the same compound?
**A.** <0.12 µg/mL

**Q.** And the “MIC Streptococcus pyogenes (ID-3187)” value ([4]; Streptococcus pyogenes (ID-3187))?
**A.** 0.5 µg/mL (≈ 0.36 µM)

**Q.** What about the “MIC Streptococcus pyogenes (GC 4563)” value ([4]; strain GC 4563) of the same compound?
**A.** <0.12 µg/mL

**Q.** And the “MIC Streptococcus agalactiae (GC 4564)” value ([4]; strain GC 4564)?
**A.** <0.12 µg/mL

**Q.** And the “MIC Streptococcus pneumoniae (GC 4565)” value ([4]; strain GC 4565)?
**A.** <0.12 µg/mL

**Q.** What about the “MIC Streptococcus pyogenes (ID-3187)” value ([4]; strain ID-3187) of the same compound?
**A.** 0.5 µg/mL (≈ 0.36 µM)

**Q.** What about the median effective dose (ED50), Streptococcus pneumoniae (GC 1894) [5] of the same compound?
**A.** 0.02 mg/kg

**Q.** For `CCCCCCC(=O)OC1C(O)C(CO)OC(OC2C(CO)OC(Oc3ccc(CC4NC(=O)C(C(C)c5ccccc5)NC(=O)CNC(=O)C(CO)NC(=O)C(C(O)C5CNC(=N)N5C5OC(CO)C(O)C(O)C5O)NC(=O)C(C(O)C5CNC(=N)N5)NC4=O)cc3)C(O)C2O)C1O` (stereo not drawn) [Example 274b, Cyclo[glycyl-β-methylphenylalanyl-O-[4-O-(3-O-heptanoyl-hexopyranosyl)-hexopyranosyl]tyrosyl-3-(2-iminoimidazolidin-4-yl)seryl-3-(3-hexopyranosyl-2-iminoimidazolidin-4-yl)serylseryl]], which “Zone of Inhibition vs. S. aureus” value [6] is on record?
**A.** 10 mm

**Q.** `CCCC(=O)OC1C(O)C(CO)OC(OC2C(CO)OC(Oc3ccc(CC4NC(=O)C(C(C)c5ccccc5)NC(=O)CNC(=O)C(CO)NC(=O)C(C(O)C5CNC(=N)N5C5OC(CO)C(O)C(O)C5O)NC(=O)C(C(O)C5CNC(=N)N5)NC4=O)cc3)C(O)C2O)C1O` (stereo not drawn) [Example 272b, Cyclo[glycyl-β-methylphenylalanyl-O-[4-O-(3-O-butanoyl-hexopyranosyl)-hexopyranosyl]tyrosyl-3-(2-iminoimidazolidin-4-yl)seryl-3-(3-hexopyranosyl-2-iminoimidazolidin-4-yl)serylseryl]] was tested. Which “Zone of Inhibition vs. S. aureus” value [6] did it give?
**A.** 8 mm
